According to ChEMBL document CHEMBL1201862, “PubChem BioAssay data set” (2004):
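96-well plates; 48 h exposure; 5 concentrations. Endpoints by linear interpolation between flanking doses. Not reached: highest tested concentration assigned. GI50 = concentration required for 50% inhibition of growth.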 Active and inactive are the calls of the source. No stated cut-off is given here; in the data, active = GI50 up to about 1.1 µM and inactive = higher.

How the values were obtained:
Experiment in all cases: NCI anticancer screen, dose series, 48 h
SK-MEL-2 = system: SK-MEL-2
HCC 2998 = system: HCC 2998
UACC-62 = system: UACC-62
SF-539 = system: SF-539
HL-60 = system: HL-60
SNB-19 = system: SNB-19
MCF7 = system: MCF7
SNB-75 = system: SNB-75
NCI-H460 = system: NCI-H460
LOX IMVI = system: LOX IMVI
RPMI-8226 = system: RPMI-8226
Hs-578T = system: Hs-578T
T47D = system: T47D
MOLT-4 = system: MOLT-4
PC-3 = system: PC-3
SK-MEL-28 = system: SK-MEL-28
SF-295 = system: SF-295
DU-145 = system: DU-145
M14 = system: M14
A498 = system: A498

| Structure (SMILES) | GI50 (SK-MEL-2) | GI50 (HCC 2998) | GI50 (UACC-62) | GI50 (SF-539) | GI50 (HL-60) | GI50 (SNB-19) | GI50 (MCF7) | GI50 (SNB-75) | GI50 (NCI-H460) | GI50 (LOX IMVI) | GI50 (RPMI-8226) | GI50 (Hs-578T) | GI50 (T47D) | GI50 (MOLT-4) | GI50 (PC-3) | GI50 (SK-MEL-28) | GI50 (SF-295) | GI50 (DU-145) | GI50 (M14) | GI50 (A498) |
| --- | --- | --- | --- | --- | --- | --- | --- | --- | --- | --- | --- | --- | --- | --- | --- | --- | --- | --- | --- | --- |
| CC1(C)C=Cc2c(cc(O)c3c(=O)c4cc(Cl)ccc4[nH]c23)O1 | 2.69 µM (inactive) | 3.62 µM (inactive) | 2.58 µM (inactive) | 4.13 µM (inactive) | 2.84 µM (inactive) | 2.62 µM (inactive) | 2.88 µM (inactive) | 4.03 µM (inactive) | 1.98 µM (inactive) | 3.29 µM (inactive) | 2.29 µM (inactive) | 0.161 µM (active) | 3.69 µM (inactive) | 2.54 µM (inactive) | 2.04 µM (inactive) | 4 µM (inactive) | 2.84 µM (inactive) | – | – | – |
| CC(=O)Oc1ccccc1C(=O)O [ASPIRIN] | > 100 µM (inactive) | – | > 100 µM (inactive) | > 100 µM (inactive) | > 100 µM (inactive) | > 100 µM (inactive) | > 100 µM (inactive) | > 100 µM (inactive) | – | > 100 µM (inactive) | > 100 µM (inactive) | – | > 100 µM (inactive) | > 100 µM (inactive) | > 100 µM (inactive) | > 100 µM (inactive) | > 100 µM (inactive) | > 100 µM (inactive) | > 100 µM (inactive) | – |
| CCOC(=O)/C(=C\NC(C)(C)C)c1nc2ccccc2[nH]1 | – | – | 16.3 µM (inactive) | 16.8 µM (inactive) | 13.2 µM (inactive) | 39.3 µM (inactive) | 18.6 µM (inactive) | 23.7 µM (inactive) | 17.7 µM (inactive) | 21.9 µM (inactive) | 17.2 µM (inactive) | 19.6 µM (inactive) | – | – | – | 16.4 µM (inactive) | 20.2 µM (inactive) | 29.9 µM (inactive) | 20.1 µM (inactive) | 25.1 µM (inactive) |
| c1cc2c(cc1NC1=NCCO1)CCC2 | > 10 µM (inactive) | > 10 µM (inactive) | > 10 µM (inactive) | 3.08 µM (inactive) | 5.61 µM (inactive) | 0.0869 µM (active) | > 10 µM (inactive) | 9.1 µM (inactive) | – | > 10 µM (inactive) | > 10 µM (inactive) | 1.03 µM (active) | > 10 µM (inactive) | > 10 µM (inactive) | > 10 µM (inactive) | > 10 µM (inactive) | > 10 µM (inactive) | – | – | – |
| O=C1/C(=C/c2ccc(Cl)cc2)NC(=S)N1CN1CCCCC1 | 73.1 µM (inactive) | – | 13.1 µM (inactive) | – | – | 17.7 µM (inactive) | 29.2 µM (inactive) | 36.3 µM (inactive) | – | 37.8 µM (inactive) | 20 µM (inactive) | 21.5 µM (inactive) | – | 30.2 µM (inactive) | 48.4 µM (inactive) | 61.2 µM (inactive) | 36.9 µM (inactive) | 45.8 µM (inactive) | 35.1 µM (inactive) | 61.5 µM (inactive) |
| CCN1CCC(O)(c2ccc(Oc3ccc(F)cc3)cc2)C(C(=O)c2ccc(Oc3ccc(F)cc3)cc2)C1 (stereo not drawn) | 17.2 µM (inactive) | 11.4 µM (inactive) | 14.8 µM (inactive) | 18.5 µM (inactive) | – | 15.8 µM (inactive) | 11.5 µM (inactive) | 15.5 µM (inactive) | – | 11.8 µM (inactive) | 2.79 µM (inactive) | 17.2 µM (inactive) | 13.4 µM (inactive) | 14 µM (inactive) | 13.4 µM (inactive) | 15.8 µM (inactive) | 15.7 µM (inactive) | 12.2 µM (inactive) | 16.9 µM (inactive) | – |
| Fc1ccc2c3c([nH]c2c1)CCNC3 | – | 76 µM (inactive) | > 100 µM (inactive) | > 100 µM (inactive) | > 100 µM (inactive) | > 100 µM (inactive) | > 100 µM (inactive) | > 100 µM (inactive) | > 100 µM (inactive) | > 100 µM (inactive) | > 100 µM (inactive) | > 100 µM (inactive) | > 100 µM (inactive) | > 100 µM (inactive) | – | > 100 µM (inactive) | 67.8 µM (inactive) | > 100 µM (inactive) | > 100 µM (inactive) | 20.4 µM (inactive) |
| COc1ccc(CNc2nc(NC3CCCCC3)nc(NC3CCCCC3)n2)cc1 | 11.4 µM (inactive) | – | 6.46 µM (inactive) | 8.28 µM (inactive) | 4.88 µM (inactive) | > 100 µM (inactive) | 3.78 µM (inactive) | 8.81 µM (inactive) | 3.44 µM (inactive) | 1.79 µM (inactive) | 2.66 µM (inactive) | 7.29 µM (inactive) | 3.41 µM (inactive) | 4.25 µM (inactive) | 5.15 µM (inactive) | 20.6 µM (inactive) | 9.66 µM (inactive) | 5.6 µM (inactive) | 4.42 µM (inactive) | – |
| Cc1cccc2nc3cccc(C(=O)NCCC[N+](C)(CCCNC(=O)c4cccc5nc6cccc(C)c6nc45)Cc4ccc([N+](=O)[O-])n4C)c3nc12 | 8.32 µM (inactive) | 11.6 µM (inactive) | 5.4 µM (inactive) | – | – | 13.1 µM (inactive) | 0.552 µM (active) | > 100 µM (inactive) | 0.405 µM (active) | 0.871 µM (active) | 1.33 µM (inactive) | 18.5 µM (inactive) | 14.9 µM (inactive) | 0.377 µM (active) | 1.83 µM (inactive) | 3.94 µM (inactive) | 5.66 µM (inactive) | 1.45 µM (inactive) | > 31.3 µM (inactive) | – |
| Cc1ccc(O)c(Cc2nc3ccccc3nc2-c2cccc(Cl)c2)c1 | 46.3 µM (inactive) | 36.1 µM (inactive) | 57.9 µM (inactive) | 87.1 µM (inactive) | 42 µM (inactive) | 21 µM (inactive) | 40.8 µM (inactive) | – | 54.3 µM (inactive) | 36.8 µM (inactive) | 22.5 µM (inactive) | 30.6 µM (inactive) | 79.8 µM (inactive) | 17.3 µM (inactive) | 42 µM (inactive) | – | > 100 µM (inactive) | > 100 µM (inactive) | > 100 µM (inactive) | – |
| CC(C)(C)OC(=O)NCCCCCCC(=O)Cc1ccccc1 | > 100 µM (inactive) | > 100 µM (inactive) | – | – | – | > 100 µM (inactive) | > 100 µM (inactive) | > 100 µM (inactive) | > 100 µM (inactive) | > 100 µM (inactive) | > 100 µM (inactive) | – | > 100 µM (inactive) | 59 µM (inactive) | > 100 µM (inactive) | > 100 µM (inactive) | > 100 µM (inactive) | > 100 µM (inactive) | > 100 µM (inactive) | > 100 µM (inactive) |
| C[n+]1c2ccccc2c(CNc2ccc(S(=O)(=O)N=C(N)N)cc2)c2ccccc21 | 24.8 µM (inactive) | 15.1 µM (inactive) | 10.4 µM (inactive) | 3.24 µM (inactive) | 1.46 µM (inactive) | 4.05 µM (inactive) | – | 4.13 µM (inactive) | 0.61 µM (active) | 3.29 µM (inactive) | 2.7 µM (inactive) | – | – | 0.311 µM (active) | – | 12.4 µM (inactive) | 3.6 µM (inactive) | – | 6.05 µM (inactive) | 17.4 µM (inactive) |
| COC(=O)c1sc2nc(Nc3ccccc3)/c(=N\c3ccccc3)sc2c1C | 48.6 µM (inactive) | > 100 µM (inactive) | 35.6 µM (inactive) | 51.9 µM (inactive) | > 100 µM (inactive) | 36.6 µM (inactive) | – | 25 µM (inactive) | 45.4 µM (inactive) | > 100 µM (inactive) | > 100 µM (inactive) | 27.7 µM (inactive) | > 100 µM (inactive) | > 100 µM (inactive) | > 100 µM (inactive) | > 100 µM (inactive) | 51.4 µM (inactive) | > 100 µM (inactive) | – | 53.7 µM (inactive) |
| COC(=O)CN1C(=O)C2(C(=O)OC)OC1(c1ccc([N+](=O)[O-])cc1)C1C(=O)N(c3ccccc3)C(=O)C12 (stereo not drawn) | > 100 µM (inactive) | – | > 100 µM (inactive) | > 100 µM (inactive) | > 100 µM (inactive) | > 100 µM (inactive) | – | > 100 µM (inactive) | – | > 100 µM (inactive) | – | > 100 µM (inactive) | > 100 µM (inactive) | > 100 µM (inactive) | > 100 µM (inactive) | > 100 µM (inactive) | > 100 µM (inactive) | > 100 µM (inactive) | > 100 µM (inactive) | > 100 µM (inactive) |
| COc1ccc(N2/C(=N/c3ccccc3)SC(=N/S(=O)(=O)c3ccccc3)/C2=N\S(=O)(=O)c2ccccc2)cc1 | – | 17.3 µM (inactive) | 6.82 µM (inactive) | – | 12.1 µM (inactive) | 18.7 µM (inactive) | 18.7 µM (inactive) | 19.4 µM (inactive) | 11.3 µM (inactive) | – | 20.7 µM (inactive) | 18.6 µM (inactive) | 0.298 µM (active) | 17.8 µM (inactive) | 16.7 µM (inactive) | 14.5 µM (inactive) | – | – | 33.7 µM (inactive) | 20.1 µM (inactive) |
| CN1CCN(c2ncc3c(n2)sc2c(=O)n(-c4ccccc4)cnc23)CC1 | > 100 µM (inactive) | > 100 µM (inactive) | > 100 µM (inactive) | – | – | > 100 µM (inactive) | – | > 100 µM (inactive) | > 100 µM (inactive) | > 100 µM (inactive) | > 100 µM (inactive) | > 100 µM (inactive) | > 100 µM (inactive) | > 100 µM (inactive) | > 100 µM (inactive) | > 100 µM (inactive) | > 100 µM (inactive) | > 100 µM (inactive) | > 100 µM (inactive) | > 100 µM (inactive) |
